Values quoted from earlier work as cited in patent US9314435B2, “Stable formulations of antiplatelet agents, omega-3 fatty acids and amylose in soft gelatin capsules” (ALTERGON S.A., priority 2011, dated 2016).

Details: 325 mg on alternate days

CC(=O)Oc1ccccc1C(=O)O [ASA, Acetylsalicylic acid]
reduction of the risk of the first heart attack: 44%
